Laboratory results: patent US20240299484A1, “DILEUCINE COMPOSITIONS AND METHODS OF USE THEREOF” (Ingenious Ingredients, LP, priority 2023, published 2024)
Marks after values point to notes of the source that are not given here.

Key:
Format in all cases: in vivo, Swiss Albino mice
total cholesterol (TC) = assay: Blood lipids: total cholesterol; conditions: for TC / TC [mg/dl]: after 28 days of supplementation, mice, n = 8; for TC Change over control [%]: vs Exercise Control, 28 days
Description: (§1) Eight 8-week-old male Swiss Albino mice per experimental group were housed in an animal room at a constant temperature (22±3° C.) and humidity (30%-70%) under a 12:12 h light-dark cycle with standard laboratory diet (Purina 5L79, Rat and Mouse 18% protein; PMI Nutrition International, Brentwood, MO, USA). Distilled water was provided ad libitum. All animal experiments were reviewed and approved by the Institutional Animal Ethical Committee (IAEC) of Radiant Research Services Pvt. Ltd (Bangalore, India). All research was conducted in accordance with the guidelines of the committee for the purpose of control and supervision of experiments on animals (CPCSEA Registration Number-1803/PO/RcBi/S/2015/CPCSEA).
(§2) After one week of acclimation, the animals were randomly divided by body weight into different groups (n=8 per group in each test) for oral treatment once a day, at approximately same time each day (+1 hour), for 28 consecutive days: (1) vehicle control; (2) paraxanthine (3) dileucine; (4) paraxanthine+dileucine; (5) L-arginine; (6) L-arginine+dileucine; (7) L-citrulline; and (8) L-citrulline+dileucine. The dose administered to the mice was calculated using US Food and Drug Administration for human equivalence doses (HED), assuming a human weight of 60 kg. The following HED were used in this study: 2,000 mg dileucine (RAMPS™, Ingenious Ingredients, L.P., Lewisville, TX, USA; mouse 411 mg/kg bw), 100 mg paraxanthine, (ENFINITY™, Ingenious Ingredients, L.P Lewisville, TX, USA; mouse dose: 20.5 mg/kg bw/day); 3,000 mg L-arginine (Nanjing Nutrabuilding Bio-tech Co., LTD., No. 270 Jiqingmen Strect, Suning Huigu, Building E6, Room 2105, Nanjing, China 210017; mouse 616.55 mg/kg bw), 3,000 mg L-citrulline (Nanjing Nutrabuilding Bio-tech Co., LTD., No. 270 Jiqingmen Street, Suning Huigu, Building E6, Room 2105, Nanjing, China 210017; mouse 616.55 mg/kg bw). 0.5% Carboxy Methyl Cellulose sodium was used as vehicle and the test item formulations were prepared daily. Dosing was conducted via oral gavage using disposable polypropylene syringes with sterilized stainless steel gavage tubes. The food intake and water consumption were monitored daily, and BW was recorded weekly. The last dose on day 28 was given 1 hour prior to testing.
(§3) All animals were euthanized by 95% CO2 after 28 days of following their assigned treatment. Blood was collected immediately after euthanization by the retro-orbital route and was immediately centrifuged at 1500×g for 10 min at 4° C. before having all serum transferred into cryogenic tubes and stored at −80° C.
(§4) Serum and plasma samples were separated by centrifuging the blood at 8000 rpm for 10 mins and analyze the below mentioned biomarkers, Biomarkers: TC, TG, LDL and HDL, CRP, Serum lactate, Ammonia, Glucose, NO, IL-2, IL-6, IL-10. Blood was collected in EDTA tubes for below mentioned biomarkers, Immune health Biomarkers (T helper subsets): TH1, TH2, TH17, Tfh, iTreg.

TH1 = assay: Immune health biomarkers (T helper subsets): TH1; conditions: for TH1(%): T helper subset in blood after 28 days, mice, n = 8; for TH1 Change over control [%]: vs Exercise Control, 28 days
Description: PMI Nutrition International, Brentwood, MO, USA). Distilled water was provided ad libitum. All animal experiments were reviewed and approved by the Institutional Animal Ethical Committee (IAEC) of Radiant Research Services Pvt. Ltd (Bangalore, India). All research was conducted in accordance with the guidelines of the committee for the purpose of control and supervision of experiments on animals (CPCSEA Registration Number-1803/PO/[…]). […] (1) vehicle control; […] (4) paraxanthine+dileucine; […] The dose administered to the mice was calculated using US Food and Drug Administration for human equivalence doses (HED), assuming a human weight of 60 kg. […] Dosing was conducted via oral gavage using disposable polypropylene syringes with sterilized stainless steel gavage tubes. The food intake and water consumption were monitored daily, and BW was recorded weekly. The last dose on day 28 was given 1 hour prior to testing. Serum and plasma samples were separated by centrifuging the blood at 8000 rpm for 10 mins and analyze the below mentioned biomarkers, Biomarkers: TC, TG, LDL and HDL, CRP, Serum lactate, Ammonia, Glucose, NO, IL-2, IL-6, IL-10. Blood was collected in EDTA tubes for below mentioned biomarkers, Immune health Biomarkers (T helper subsets): […]

IL-2 = assay: Inflammatory markers: IL-2; conditions: for IL-2 Change over control [%]: vs Exercise Control, 28 days
Description: as §1, §2, §3, §4

Tfh = assay: Immune health biomarkers (T helper subsets): Tfh; conditions: for Tfh(%) (mg/L): T helper subset in blood after 28 days, mice, n = 8; for Tfh Change over control [%]: vs Exercise Control, 28 days
Description: as §1, §2, §4

[1] = Treadmill exercise / endurance test; parameters: Percentage Increase over control (number of shocks) / Percentage Increase over control (time on shock zone) / Percentage Increase over control (distance travelled): concentration or dose not given beside the values; conditions: for Distance travelled (m) by mice during treadmill exercise Day −0 / No. of shocks during treadmill exercise Day −0 / Time spent on shock zone during excercise [sec] Day −0: Day −0 (baseline), n = 8, mice; for No. of shocks during treadmill exercise Day −28 / Time spent on shock zone during excercise [sec] Day −28: Day −28, oral once a day for 28 days; for Distance travelled (m) by mice during treadmill exercise Day −28: Day −28, until exhaustion, oral once a day for 28 days; for Distance Increase over Day −0 / No of Shocks Decrease over Day −0 / Time spent on shock zone over Day −0: Day −28 minus Day −0; for Percentage Increase over control (time on shock zone): change vs Exercise Control; for Percentage Increase over control (time on shock zone) / Percentage Increase over control (number of shocks) / Percentage Increase over control (distance travelled): 28 days; for Percentage Increase over control (number of shocks): decrease in shocks vs Exercise Control; for Percentage Increase over control (distance travelled): increase vs Exercise Control
Description: as §1, §2
During the treatment period, exercise training was completed using a motorized treadmill (Exer 3/6, Columbus Instruments international, OH, USA) at a moderate intensity of 20 cm/sec as maximal running speed, an incline of ten degrees and a shock intensity of 0.2 mA, for ten minutes. The speed of the treadmill was manually adjusted by increasing the belt speed by 5 cm/sec every two minutes throughout the total duration of ten minutes. All animals were adapted to this procedure daily 60 minutes after dosing for five days in a week during the treatment period.
On 28th day of each respective treatment, all animals were subjected to a muscle endurance test. Muscle endurance was accomplished on a motorized treadmill at a low to moderate intensity of 5-50 cm/sec as maximal running speed, an incline of ten degrees and a shock intensity of 0.2 mA, with the belt speed being increased by 5 cm/sec every two minutes until it reaches 50 cm/sec. Animals were subjected to the treadmill test until exhaustion. Distance traveled (m) was measured as a marker of exercise performance.

[2] = after 28 days of supplementation and exercise, mice, n = 8

Row | SMILES | TC (total cholesterol (TC)) [mg/dL] | TC Change over control [%] (total cholesterol (TC)) | TH1(%) (TH1) | TH1 Change over control [%] (TH1) | IL-2 (ng/L) (IL-2; [2]) | IL-2 Change over control [%] (IL-2) | Tfh(%) (mg/L) (Tfh) | Tfh Change over control [%] (Tfh) | Distance travelled (m) by mice during treadmill exercise Day −0 [1] [m] | No. of shocks during treadmill exercise Day −0 [1] | Time spent on shock zone during excercise [sec] Day −0 [1] [s] | No. of shocks during treadmill exercise Day −28 [1] | Time spent on shock zone during excercise [sec] Day −28 [1] | Distance travelled (m) by mice during treadmill exercise Day −28 [1] | Distance Increase over Day −0 [1] [m] | No of Shocks Decrease over Day −0 [1] | Time spent on shock zone over Day −0 [1] [s] | Percentage Increase over control (time on shock zone) [1] [%] | Percentage Increase over control (number of shocks) [1] [%] | Percentage Increase over control (distance travelled) [1] [%] | further results
1 | CC(C)C[C@H](NC(=O)[C@@H](N)CC(C)C)C(=O)O [Dileucine, L-Leucyl-L-leucine] | 93.3 | −6 | 58.86*** % | −37 | 46.4*** ng/L | 24 | 55.72% | 613 | 38.88 | 27.63 | 91 | 13*** | 31.88*** sec | 328.5*** m | 289.62 | −14.63 | -59.12 | 94 | 86 | 109 | 
2 | N=C(N)NCCC[C@H](N)C(=O)O [L-Arginine, L-arginine] | 95.43 | −5 | 53.66*** % | −43 | 42.04*** ng/L | 23 | 44.16*** % | 465 | 39.13 | 30.38 | 90 | 16.75*** | 35.13*** sec | 314.25*** m | 275.12 | −13.63 | -54.87 | 80 | 73 | 98 | 
3 | NC(=O)NCCC[C@H](N)C(=O)O [L-Citrulline, L-citrulline] |  | −6 | 59.71*** % | −36 | 42.8*** ng/L | 25 | 40.87*** % | 423 | 38.5 | 28.63 | 90.88 | 17.00*** | 36.63*** sec | 312*** m | 273.5 | −11.63 | -54.25 | 78 | 48 | 97 | TC [mg/dl] (total cholesterol (TC)): 94.26* mg/dl
4 | Cn1c(=O)[nH]c2ncn(C)c2c1=O [Paraxanthine, 1,7-dimethylxanthine] |  | −8 | 65.68*** % | −30 |  | 23 | 54.96*** % | 603 | 41.13 | 26.5 | 90.75 | 13.38*** | 32.25*** sec | 325.75*** m | 284.62 | −13.12 | -58.5 | 92 | 67 | 105 | TC [mg/dl] (total cholesterol (TC)): 91.66** mg/dl; IL-2 (IL-2; [2]): 45.91 ng/L
